Experimental data as given in patent US9079821B2, “Quinone based nitric oxide donating compounds” (NICOX S.A., priority 2011, dated 2015).
Where two headings read alike, the source gives them in different places.

Legend:
[1] = tested on: lipid peroxidation of hepatic microsomal membranes; assay: In vitro antioxidant activity (TBARS test), Method B (2.5 μM FeSO4); format: biochemical, rat; conditions: inhibition of TBARS production, read-out: Antioxidant activity IC50 μM (CL 95%)
Description: The antioxidant properties of compounds (6) (disclosed in example 1) and compound (23) (disclosed in example 19) and reference antioxidant compounds were assessed after NADPH-induced lipidic peroxidation of membrane lipids in rat hepatocytes using the detection of 2-thiobarbituric acid reactive substances (TBARS) by visible spectroscopy. Hepatic microsomal membranes from male Wistar rats (200-250 g) were prepared by differential centrifugation (8000 g, 20 min; 120000 g, 1 h) in a HEPES/sucrose buffer (10 mM, 250 mM, pH 7.4) and stored at −80° C. Incubation was performed at 37° C. in a Tris-HCl/KCl (100 mM/150 mM, pH 7.4) containing microsomal membranes (2 mg prot/mL), sodium ascorbate (100 μM), and DMSO solutions of the tested compounds. Lipid peroxidation was initiated by adding ADP-FeCl3 and NADPH (Method A) or 2.5 μM FeSO4 (Method B) (as described by Boschi D. et al., J. Med. Chem. 2006, 49:2886-2897). Aliquots were taken from the incubation mixture at 5, 15, and 30 min and treated with trichloroacetic acid (TCA) 10% w/v. Lipid peroxidation was assessed by spectrophotometric (543 nm) determination of the TBARS consisting mainly of malondialdehyde (MDA). TBARS concentrations (expressed in nmol/mg protein) were obtained by interpolation with a MDA standard curve. […] IC50 values were calculated by nonlinear regression analysis.

[2] = tested on: NADPH-induced lipidic peroxidation of membrane lipids (hepatic microsomal membranes); assay: In vitro antioxidant activity (TBARS test), Method A (ADP-FeCl3 and NADPH); format: biochemical, rat; conditions: inhibition of TBARS production after 30 min incubation, read-out: Antioxidant activity IC50 μM (CL 95%)
Description: The antioxidant properties of compounds (6) (disclosed in example 1) and compound (23) (disclosed in example 19) and reference antioxidant compounds were assessed after NADPH-induced lipidic peroxidation of membrane lipids in rat hepatocytes using the detection of 2-thiobarbituric acid reactive substances (TBARS) by visible spectroscopy.
Hepatic microsomal membranes from male Wistar rats (200-250 g) were prepared by differential centrifugation (8000 g, 20 min; 120000 g, 1 h) in a HEPES/sucrose buffer (10 mM, 250 mM, pH 7.4) and stored at −80° C. Incubation was performed at 37° C. in a Tris-HCl/KCl (100 mM/150 mM, pH 7.4) containing microsomal membranes (2 mg prot/mL), sodium ascorbate (100 μM), and DMSO solutions of the tested compounds. Lipid peroxidation was initiated by adding ADP-FeCl3 and NADPH (Method A) or 2.5 μM FeSO4 (Method B) (as described by Boschi D. et al., J. Med. Chem. 2006, 49:2886-2897). Aliquots were taken from the incubation mixture at 5, 15, and 30 min and treated with trichloroacetic acid (TCA) 10% w/v. Lipid peroxidation was assessed by spectrophotometric (543 nm) determination of the TBARS consisting mainly of malondialdehyde (MDA). TBARS concentrations (expressed in nmol/mg protein) were obtained by interpolation with a MDA standard curve. The antioxidant activity of tested compounds was evaluated as the percent inhibition of TBARS production with respect to control samples, using the values obtained after 30 min of incubation. IC50 values were calculated by nonlinear regression analysis.

[3] = tested on: lipid peroxidation of hepatic microsomal membranes; conditions: Method B; values from Chegaev, K. et al. (footnotes a, b); read-out: Antioxidant activity IC50 μM (CL 95%); cited from earlier work

SMILES | IC50 [2] | IC50 [3] | other results
O=C(O)/C=C/c1ccc(O)c(O)c1 [Caffeic acid] | – | – | IC50 [1]: 33 µM
CC1=C(CCCCCCO[N+](=O)[O-])C(=O)c2ccccc2C1=O [Compound (23), 6-(3-methyl-1,4-dioxo-1,4-dihydronaphthalen-2-yl) hexyl nitrate] | 1.4 µM | – | –
CC1=NN(c2ccccc2)C(=O)C1 [Edavarone] | – | 17 µM | –
COC1=C(OC)C(=O)C(CCCCCCCCCCO)=C(C)C1=O [Idebenone, reference compound] | 1.6 µM | – | –
COc1ccc2[nH]cc(CCNC(C)=O)c2c1 [Melatonin] | – | 476 µM | –
